The results in this text go back to paper PMC7515829, “HKDC1 C-terminal based peptides inhibit extranodal natural killer/T-cell lymphoma by modulation of mitochondrial function and EBV suppression” (Leukemia, 2020).

The subject of assay [1] is SNK6 cells. The settings on record: 0.5 µM peptide, 6 h, vs CTL, n = 3 (Fig. 5g). How it is done:
Immunostaining. […] The cells were then washed three times and the FITC labeled anti-mouse secondary antibody (1:100) was added for blotting for another 1 hour. After thorough washing, the slides were visualized and photographed, the nuclei of cells were stained with 4’,6-diamidino-2-phenylindole dihydrochloride (DAPI, #D9542, from Sigma), and the positive Ki-67 cells were quantitated.

Assay [2] concerns Hela. Briefly: Cell death IC50 by PI staining/FACS. It is filed as cell-based. The settings on record: Human cervix adenocarcinoma/EBV(−), 0.1–15 µM, 6 h (suspension) or 12 h (adherent cells), mean ± SEM, read-out: Peptide IC50 (µM), cell death, Hela. How it is done: (§1) Measurement of apoptosis and cell death. Apoptosis was evaluated by TUNEL assay using the In Situ Cell Death Detection Kit™ (Roche). Cells were fixed in 4% paraformaldehyde and labeled with TUNEL reagents. Stained cells were photographed by a fluorescence microscope (11). For cell death analysis, the propidium iodide (PI) staining was performed by addition of 6.25 µg/ml of PI to the cells, and cell death was immediately evaluated by FACS analysis (3).

Assay [3] relates to MM.1R. Briefly: Cell death IC50 by PI staining/FACS. It counts as cell-based. The settings on record: Human B lymphoblast/EBV(−), 0.1–15 µM, 6 h (suspension) or 12 h (adherent cells), mean ± SEM, read-out: Peptide IC50 (µM), cell death, MM.1R. The protocol: as §1
The subject of assay [4] is HepG2. Briefly: Cell death IC50 by PI staining/FACS. It is filed as cell-based. The settings on record: Human hepatocellular carcinoma/EBV(−), 0.1–15 µM, 6 h (suspension) or 12 h (adherent cells), mean ± SEM, read-out: Peptide IC50 (µM), cell death, HepG2. The protocol:
as §1

Assay [5] deals with SW480. The assay is described as follows: Cell death IC50 by PI staining/FACS. It is filed as cell-based. The note with it: Human colorectal adenocarcinoma/EBV(−), 0.1–15 µM, 6 h (suspension) or 12 h (adherent cells), mean ± SEM, read-out: Peptide IC50 (µM), cell death, SW480. How it is done:
as §1

In assay [6] the test system is RPMI 8226. Briefly: Cell death IC50 by PI staining/FACS. It counts as cell-based. The note with it: Human B lymphoblast/EBV(−), 0.1–15 µM, 6 h (suspension) or 12 h (adherent cells), mean ± SEM, read-out: Peptide IC50 (µM), cell death, RPMI 8226. How it is done: as §1
In assay [7] the test system is MCF7. Briefly: Cell death IC50 by PI staining/FACS. It counts as cell-based. The settings on record: Human breast adenocarcinoma/EBV(−), 0.1–15 µM, 6 h (suspension) or 12 h (adherent cells), mean ± SEM, read-out: Peptide IC50 (µM), cell death, MCF7. How it is done: as §1
Assay [8] deals with MDA-MB-231. The assay is described as follows: Cell death IC50 by PI staining/FACS. It is filed as cell-based. The settings on record: Human breast adenocarcinoma/EBV(−), 0.1–15 µM, 6 h (suspension) or 12 h (adherent cells), mean ± SEM, read-out: Peptide IC50 (µM), cell death, MDA-MB-231. The protocol: as §1
Assay [9] relates to HL-60. Briefly: Cell death IC50 by PI staining/FACS. It is filed as cell-based. The note with it: Human acute promyelocytic leukemia/EBV(−), 0.1–15 µM, 6 h (suspension) or 12 h (adherent cells), mean ± SEM, read-out: Peptide IC50 (µM), cell death, HL-60. How it is done: as §1
The test system of assay [10] is Namalwa. Briefly: Cell death IC50 by PI staining/FACS. It is filed as cell-based. The note with it: Human Burkitt’s lymphoma/EBV(+), 0.1–15 µM, 6 h (suspension) or 12 h (adherent cells), mean ± SEM, read-out: Peptide IC50 (µM), cell death, Namalwa. How it is done: as §1
Assay [11] deals with SNT8. The assay is described as follows: Cell death IC50 by PI staining/FACS. It is filed as cell-based. The note with it: Human natural killer/T-cell lymphoma/EBV(+), 0.1–15 µM, 6 h (suspension) or 12 h (adherent cells), mean ± SEM, read-out: Peptide IC50 (µM), cell death, SNT8. The protocol: as §1
For assay [12], the system named is Kasumi-1. The assay is described as follows: Cell death IC50 by PI staining/FACS. It counts as cell-based. The settings on record: Human acute myeloblastic leukemia/EBV(−), 0.1–15 µM, 6 h (suspension) or 12 h (adherent cells), mean ± SEM, read-out: Peptide IC50 (µM), cell death, Kasumi-1. The protocol:
as §1

The test system of assay [13] is NK92. Briefly: Cell death IC50 by PI staining/FACS. It counts as cell-based. The settings on record: Human natural killer non-Hodgkin’s lymphoma/EBV(−), 0.1–15 µM, 6 h (suspension) or 12 h (adherent cells), mean ± SEM, read-out: Peptide IC50 (µM), cell death, NK92. How it is done:
as §1

In assay [14] the test system is U266B1. Briefly: Cell death IC50 by PI staining/FACS. The note with it: Human B lymphoblast/EBV(−), 0.1–15 µM, 6 h (suspension) or 12 h (adherent cells), mean ± SEM, read-out: Peptide IC50 (µM), cell death, U266B1. It is filed as cell-based. The protocol:
as §1

For assay [15], the system named is HANK1. Briefly: Cell death IC50 by PI staining/FACS. It is filed as cell-based. The note with it: Human natural killer/T-cell lymphoma/EBV(+), 0.1–15 µM, 6 h (suspension) or 12 h (adherent cells), mean ± SEM, read-out: Peptide IC50 (µM), cell death, HANK1. The protocol: as §1
For assay [16], the system named is Healthy MNCs. The assay is described as follows: Cell death IC50 by PI staining/FACS. It is filed as cell-based. The note with it: Healthy human mononuclear cells/EBV(−), 0.1–15 µM, 6 h (suspension) or 12 h (adherent cells), mean ± SEM, read-out: Peptide IC50 (µM), cell death, Healthy MNCs. The protocol: as §1
For assay [17], the system named is HMECs. Briefly: Cell death IC50 by PI staining/FACS. It is filed as cell-based. The settings on record: Human mammary epithelial cells/EBV(−), 0.1–15 µM, 6 h (suspension) or 12 h (adherent cells), mean ± SEM, read-out: Peptide IC50 (µM), cell death, HMECs. The protocol: as §1
Assay [18] concerns SNK6 cells. The assay is described as follows: Intracellular ATP level (luciferin/luciferase). It is filed as cell-based, human. The settings on record: 0.5 µM peptide, 6 h, vs CTL, n = 5 (Fig. 4g). How it is done:
Measurement of mitochondrial function. Intracellular ATP level was determined using the luciferin/luciferase-induced bioluminescence system. An ATP standard curve was generated at concentrations of 10^-12-10^-3M, and intracellular ATP levels were calculated and expressed as nmol/mg protein. Mitochondrial membrane potential (Δψm) was measured using TMRE (from Molecular Probes T-669) staining. A 600μM T-669 stock solution was prepared using DMSO. Cells were grown on coverslips and immersed in 600nM TMRE for 20 min at 37°C to load them with dye. The labeling medium was then aspirated and the cells were immersed in 150nM TMRE to maintain an equal distribution of the fluorophore. The coverslips were mounted with live cells onto confocal microscopes to image the cells using 548nm excitation/573nm emission filters, and the intensity of TMRE fluorescence was measured using Image J software. Data from 10-20 cells were collected for each experimental condition and mean values of fluorescence intensity ± SEM were calculated (12).

For orientation: IC50 means the midpoint of a concentration-inhibition curve. On to HAIYPRH-LQQAQKEN [Tf-D-HKC8], for which the “cell proliferation by quantitation of Ki-67 positive cells” value in assay [1] stood at 27%. Besides, the IC50 is 6.8 ± 0.9 µM in assay [2]; 1.6 ± 0.4 µM in assay [3]; > 15 µM in assay [4]; 6.7 ± 0.8 µM in assay [5]; 1.3 ± 0.6 µM in assay [6]; > 15 µM in [7]. The IC50 is 11.6 ± 1.1 µM in assay [8]; 1.7 ± 0.4 µM in assay [9]; 0.7 ± 0.4 µM in assay [10]; 0.6 ± 0.3 µM in assay [11]; 1.8 ± 0.6 µM in assay [12]; 0.9 ± 0.4 µM in assay [13]. For the same substance, the IC50 in [14] is 1.4 ± 0.3 µM; in assay [15] it was 0.7 ± 0.4 µM; in [16], > 15 µM; in assay [17] it was > 15 µM. In addition, in assay [18], the “intracellular ATP generation” value came to 30%.
Turning to HAIYPRH-ITAVAKRLQQAQKEN [Tf-D-HKC15], in assay [1], the “cell proliferation by quantitation of Ki-67 positive cells” value is 70%. The IC50 in assay [2] is 9.8 ± 0.6 µM; in assay [3], 2.3 ± 0.7 µM; in [4], > 15 µM; in assay [5] it was 8.9 ± 0.9 µM; in assay [6], 1.9 ± 0.7 µM; in [7] it was > 15 µM. Also, the IC50 in [8] was determined as 14.4 ± 0.8 µM; in assay [9], 2.2 ± 0.6 µM; in assay [10], 0.9 ± 0.3 µM; in assay [11] it was 1.1 ± 0.4 µM; in [12] it was 2.7 ± 0.9 µM; in assay [13], 1.5 ± 0.6 µM. The IC50 in [14] was 2.2 ± 0.6 µM; in assay [15], 1.4 ± 0.6 µM; in assay [16] it was > 15 µM; in [17] it was > 15 µM. Moreover, the “intracellular ATP generation” value in [18] stood at 61%.
